We go through 24 compounds from patent US20240016942A1, “STAT DEGRADERS AND USES THEREOF” (Kymera Therapeutics, Inc., priority 2020, published 2024).

One assay deals with T1, STAT3 (Homo sapiens, UniProt P40763).
T1 construct: expressed in transfected cells; host or cells: A549
T1 sequence (P40763 whole entry): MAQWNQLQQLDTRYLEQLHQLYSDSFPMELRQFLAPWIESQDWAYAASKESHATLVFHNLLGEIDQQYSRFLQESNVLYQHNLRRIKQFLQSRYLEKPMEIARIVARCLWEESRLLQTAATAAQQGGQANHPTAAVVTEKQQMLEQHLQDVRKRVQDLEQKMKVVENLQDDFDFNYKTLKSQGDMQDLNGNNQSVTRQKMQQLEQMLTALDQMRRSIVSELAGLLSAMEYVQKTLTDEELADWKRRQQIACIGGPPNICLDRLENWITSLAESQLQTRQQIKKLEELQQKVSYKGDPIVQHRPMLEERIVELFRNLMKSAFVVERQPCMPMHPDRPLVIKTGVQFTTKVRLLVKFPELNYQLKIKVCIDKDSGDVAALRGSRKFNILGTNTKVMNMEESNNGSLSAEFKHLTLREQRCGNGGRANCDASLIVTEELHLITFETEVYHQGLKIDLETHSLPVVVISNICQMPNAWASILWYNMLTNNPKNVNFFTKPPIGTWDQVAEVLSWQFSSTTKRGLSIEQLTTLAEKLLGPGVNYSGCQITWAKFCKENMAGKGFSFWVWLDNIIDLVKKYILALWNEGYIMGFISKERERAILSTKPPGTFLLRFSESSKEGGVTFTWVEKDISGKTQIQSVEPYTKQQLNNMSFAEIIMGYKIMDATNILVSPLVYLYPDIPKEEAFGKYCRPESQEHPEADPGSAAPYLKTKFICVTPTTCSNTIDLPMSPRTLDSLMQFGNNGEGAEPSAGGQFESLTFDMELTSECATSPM
As to the kind of experiment: STAT3 HiBiT degradation assay (Nano-Glo HiBiT lytic detection) in transfected A549 cells. The class given is cell-based. Conditions: 24 h compound incubation, read-out: STAT3 HiBIT A549 degradation 24 h: Average external-Abs DC50. The procedure:
Example 1. HiBiT Assay Protocol
Compound preparation and Cell seeding: The transfected A549 cells were harvested from dish into cell culture medium and cell numbers counted. Cells were diluted with culture medium to the desired density and 30 μL of cell suspension (about 2000 cells/well) were added into each well of a 384-well cell culture plate as designated and transferred into 37° C. 5% CO2 incubator for 24 h. Compounds were dissolved to 10 mM stock solution and 12 μL of the stock solution was transferred to a 384 LDV-plate. 3 fold, 10-point dilution was performed by transferring 4 μL compound into 8 μL DMSO using a TECAN (EVO200) liquid handler. 30 μl of diluted compound from compound source plate was transferred into the cell plate as designated by using Echo550 and transferred into 37° C. 5% CO2 incubator for 24 h.
Detection: Plates were removed from incubators and equilibrated at room temperature for 15 minutes. Nano-Glo Hibit Lytic Detection reagent (Promega Cat #N3040) was thawed and equilibrated to room temperature before the experiment. 30 μL of Nano-Glo Hibit Lytic Detection reagent was added into each well to be detected. The plates were held at room temperature for 10 min followed by reading on EnSpire.
Data analysis: The remaining activity was calculated following the formula: Remaining Activity (%)=100%×(Lumsample−LumNC)/(LumPC−LumNC). Calculate the IC50 by fitting the curve using Xlfit (v5.3.1.3), equation 201: fit=(A+((B−A)/(1+((x/C)^D)))); A: Botton; B: Top; C: IC50; and D: Slope.
The letter codes for STAT3 DC50 include: A (<0.01 μM), B (0.01-0.1 μM), C (0.1-1.0 μM), and D (>1.0 μM).
(With HiBiT, luminescence reflects the tagged protein that the partner subunit can reach.)
Usually DC50 stands for the midpoint of the concentration-degradation curve. For `Cn1c(=O)n(C2CCC(=O)NC2=O)c2ccc(C[C@H]3CC[C@@H](CC(=O)N4CC[C@H]5CC[C@@H](C(=O)NC6(CCC(N)=O)CC6)N5C(=O)[C@@H](NC(=O)c5cc6cc(C(=O)P(=O)(O)O)ccc6[nH]5)C4)CC3)cc21` (stereo partly drawn) [I-31], the DC50 is greater than 1000 nM. Take `Cn1c(=O)n(C2CCC(=O)NC2=O)c2ccc(CCCCc3cccc(OC[C@H](CCC(N)=O)NC(=O)[C@@H]4CC[C@@H]5CCCC[C@H](NC(=O)c6cc7cc(C(=O)P(=O)(O)O)ccc7[nH]6)C(=O)N54)c3Cl)cc21` (stereo partly drawn) [I-32]: the DC50 is greater than 1000 nM. On to `CC(C)c1ccc(CNC(=O)[C@H](CCC(N)=O)NC(=O)[C@@H]2CC[C@@H]3CCN(C(=O)[C@H]4CC[C@@H](CCc5ccc6c(c5)n(C)c(=O)n6C5CCC(=O)NC5=O)CC4)C[C@H](NC(=O)c4cc5cc(C(=O)P(=O)(O)O)ccc5[nH]4)C(=O)N32)c(F)c1` (stereo partly drawn) [I-34], for which the DC50 was in the range of 10 to 100 nM. As to `CC(C)c1ccc(CNC(=O)[C@H](CCC(N)=O)NC(=O)[C@@H]2CC[C@@H]3CCN(C(=O)[C@H]4CC[C@@H](CCc5ccc6c(c5)n(C)c(=O)n6C5CCC(=O)NC5=O)CC4)C[C@H](NC(=O)c4cc5cc(C(=O)P(=O)(O)O)ccc5[nH]4)C(=O)N32)c(Cl)c1` (stereo partly drawn) [I-35, 2-[[(5S,8S,10aR)-8-[[(1S)-3-Carbamoyl-1-[[(2-chloro-4-isopropylphenyl)methyl]carbamoyl]propyl]carbamoyl]-6-oxo-3-[(1r,4s)-4-[2-[1-(2,6-dioxopiperidin-3-yl)-3-methyl-2-oxo-1,3-benzodiazol-5-yl]ethyl]cyclohexanecarbonyl]-octahydropyrrolo[1,2-a][1,5]diazocin-5-yl]carbamoyl]-1H-indole-5-carbonylphosphonic acid], the DC50 lay in the range of 10 to 100 nM. As for `Cc1ncsc1-c1ccc([C@H](C)NC(=O)[C@@H]2C[C@@H](O)CN2C(=O)[C@@H](NC(=O)CCCCCc2cccc(OC[C@H](CCC(N)=O)NC(=O)[C@@H]3CC[C@@H]4CCN(C(=O)C[C@H]5CC[C@@H](Cc6ccc7c(c6)n(C)c(=O)n7C6CCC(=O)NC6=O)CC5)C[C@H](NC(=O)c5cc6cc(C(=O)P(=O)(O)O)ccc6[nH]5)C(=O)N43)c2F)C(C)(C)C)cc1` (stereo partly drawn) [I-36], the half-maximal degradation concentration (DC50) lay within 10 to 100 nM.

For `Cn1c(=O)n(C2CCC(=O)NC2=O)c2ccc(CC[C@H]3CC[C@@H](C(=O)N4CC[C@H]5CC[C@@H](C(=O)N[C@@H](CCC(N)=O)c6nc7ccccc7s6)N5C(=O)[C@@H](NC(=O)c5cc6cc(C(=O)P(=O)(O)O)ccc6[nH]5)C4)CC3)cc21` (stereo partly drawn) [I-37], the DC50 is 10 to 100 nM. Regarding `Cn1c(=O)n(C2CCC(=O)NC2=O)c2ccc(C[C@H]3CC[C@@H](CC(=O)N4CC[C@H]5CC[C@@H](C(=O)N[C@@H](CCC(N)=O)C(=O)NC6(c7ccc(S(C)(=O)=O)cc7)CC6)N5C(=O)[C@@H](NC(=O)c5cc6cc(C(=O)P(=O)(O)O)ccc6[nH]5)C4)CC3)cc21` (stereo partly drawn) [I-38], the DC50 was 100 to 1000 nM. Consider `Cn1c(=O)n(C2CCC(=O)NC2=O)c2ccc(CC[C@H]3CC[C@@H](C(=O)N4CC[C@H]5CC[C@@H](C(=O)N[C@@H](CCC(N)=O)c6ccccn6)N5C(=O)[C@@H](NC(=O)c5cc6cc(C(=O)P(=O)(O)O)ccc6[nH]5)C4)CC3)cc21` (stereo partly drawn) [I-39], for which the 50% degradation concentration (DC50) was 10 to 100 nM. In the case of `C[C@@H](NC(=O)[C@H](CCC(N)=O)NC(=O)[C@@H]1CC[C@@H]2CCN(C(=O)C[C@H]3CC[C@@H](Cc4ccc5c(c4)n(C)c(=O)n5C4CCC(=O)NC4=O)CC3)C[C@H](NC(=O)c3cc4cc(C(=O)P(=O)(O)O)ccc4[nH]3)C(=O)N21)c1ccc(S(C)(=O)=O)cc1` (stereo partly drawn) [I-40], the DC50 was in the range of 100 to 1000 nM. Consider `C[C@H](NC(=O)[C@H](CCC(N)=O)NC(=O)[C@@H]1CC[C@@H]2CCN(C(=O)C[C@H]3CC[C@@H](Cc4ccc5c(c4)n(C)c(=O)n5C4CCC(=O)NC4=O)CC3)C[C@H](NC(=O)c3cc4cc(C(=O)P(=O)(O)O)ccc4[nH]3)C(=O)N21)c1ccc(S(C)(=O)=O)cc1` (stereo partly drawn) [I-41], for which the DC50 lay within 100 to 1000 nM.

For `CC(=O)N1CC[C@H]2CC[C@@H](C(=O)N[C@@H](CCC(N)=O)COc3cccc(CCCC(=O)N[C@H](C(=O)N4C[C@@H](O)C[C@H]4C(=O)N[C@@H](C)c4ccc(-c5scnc5C)cc4)C(C)(C)C)c3Cl)N2C(=O)[C@@H](NC(=O)c2cc3cc(C(=O)P(=O)(O)O)ccc3[nH]2)C1` [I-42], the 50% degradation concentration (DC50) was greater than 1000 nM. On to `CC(=O)N1CC[C@H]2CC[C@@H](C(=O)N[C@@H](CCC(N)=O)COc3cccc(CCCCC(=O)N[C@H](C(=O)N4C[C@@H](O)C[C@H]4C(=O)N[C@@H](C)c4ccc(-c5scnc5C)cc4)C(C)(C)C)c3Cl)N2C(=O)[C@@H](NC(=O)c2cc3cc(C(=O)P(=O)(O)O)ccc3[nH]2)C1` [I-43], for which the half-maximal degradation concentration (DC50) is greater than 1000 nM. Still for that read-out and setting: under `Cn1c(=O)n(C2CCC(=O)NC2=O)c2ccc(C[C@H]3CC[C@@H](CC(=O)N4CC[C@H]5CC[C@@H](C(=O)N[C@@H](CCC(N)=O)C(=O)NCc6ccc(S(C)(=O)=O)cc6F)N5C(=O)[C@@H](NC(=O)c5cc6cc(C(=O)P(=O)(O)O)ccc6[nH]5)C4)CC3)cc21` (stereo partly drawn) [I-44] stands 10 to 100 nM; under `Cn1c(=O)n(C2CCC(=O)NC2=O)c2ccc(C[C@H]3CC[C@@H](CC(=O)N4CC[C@H]5CC[C@@H](C(=O)N[C@@H](CCC(N)=O)C(=O)NCc6ccc(S(C)(=O)=O)cc6Cl)N5C(=O)[C@@H](NC(=O)c5cc6cc(C(=O)P(=O)(O)O)ccc6[nH]5)C4)CC3)cc21` (stereo partly drawn) [I-45], 10 to 100 nM; under `Cn1c(=O)n(C2CCC(=O)NC2=O)c2ccc(NC[C@H]3CC[C@H](C(=O)N4CC[C@H]5CC[C@@H](C(=O)N[C@@H](CCC(N)=O)C(=O)NCc6ccc(S(C)(=O)=O)cc6)N5C(=O)[C@@H](NC(=O)c5cc6cc(C(=O)P(=O)(O)O)ccc6[nH]5)C4)CC3)cc21` (stereo partly drawn) [I-47], 10 to 100 nM. Take `Cn1c(=O)n(C2CCC(=O)NC2=O)c2ccc(NC[C@H]3CC[C@@H](C(=O)N4CC[C@H]5CC[C@@H](C(=O)N[C@@H](CCC(N)=O)C(=O)NCc6ccc(S(C)(=O)=O)cc6)N5C(=O)[C@@H](NC(=O)c5cc6cc(C(=O)P(=O)(O)O)ccc6[nH]5)C4)CC3)cc21` (stereo partly drawn) [I-48]: the DC50 lay within 10 to 100 nM. On to `C[C@H](CCC(N)=O)NC(=O)[C@@H]1Cc2cc(CCCCCCc3ccc4c(c3)n(C)c(=O)n4C3CCC(=O)NC3=O)cc3c2N1C(=O)[C@@H](NC(=O)c1cc2cc(C(=O)P(=O)(O)O)ccc2[nH]1)CC3` (stereo partly drawn) [I-49], for which the DC50 is 10 to 100 nM. For the compound `C[C@H](CCC(N)=O)NC(=O)[C@@H]1CC[C@@H]2CCN(C(=O)C[C@H]3CC[C@@H](Cc4ccc5c(c4)n(C)c(=O)n5C4CCC(=O)NC4=O)CC3)C[C@H](NC(=O)c3cc4cc(C(=O)P(=O)(O)O)ccc4[nH]3)C(=O)N21` (stereo partly drawn) [I-50], the DC50 was 100 to 1000 nM. The same measure, in the same setting: under `Cn1c(=O)n(C2CCC(=O)NC2=O)c2ccc(C[C@H]3CC[C@@H](CC(=O)N4CC[C@H]5CC[C@@H](C(=O)N[C@@H](CCC(N)=O)COc6cccc(S(C)(=O)=O)c6)N5C(=O)[C@@H](NC(=O)c5cc6cc(C(=O)P(=O)(O)O)ccc6[nH]5)C4)CC3)cc21` (stereo partly drawn) [I-51] stands 10 to 100 nM. Regarding `Cn1c(=O)n(C2CCC(=O)NC2=O)c2ccc(C[C@H]3CC[C@@H](CCN4CC[C@H]5CC[C@@H](C(=O)N[C@@H](CCC(N)=O)C(=O)NCc6ccc(S(C)(=O)=O)cc6)N5C(=O)[C@@H](NC(=O)c5cc6cc(C(=O)P(=O)(O)O)ccc6[nH]5)C4)CC3)cc21` (stereo partly drawn) [I-52, 2-[[(5S,8S,10aR)-8-[[(1S)-3-carbamoyl-1-[[(4-methanesulfonylphenyl)methyl]carbamoyl]propyl]carbamoyl]-6-oxo-3-[2-[(1s,4s)-4-[[1-(2,6-dioxopiperidin-3-yl)-3-methyl-2-oxo-1,3-benzodiazol-5-yl]methyl]cyclohexyl]ethyl]-octahydropyrrolo[1,2-a][1,5]diazocin-5-yl]carbamoyl]-1H-indole-5-carbonylphosphonic acid], the DC50 is 100 to 1000 nM. Consider `Cc1ncsc1-c1ccc([C@H](C)NC(=O)[C@@H]2C[C@@H](O)CN2C(=O)[C@@H](NC(=O)CCCc2cccc(OC[C@H](CCC(N)=O)NC(=O)[C@@H]3CC[C@@H]4CCN(C(=O)C(C)C)C[C@H](NC(=O)c5cc6cc(C(=O)P(=O)(O)O)ccc6[nH]5)C(=O)N43)c2Cl)C(C)(C)C)cc1` [I-54], for which the 50% degradation concentration (DC50) was less than 10 nM. With `Cc1ncsc1-c1ccc([C@H](C)NC(=O)[C@@H]2C[C@@H](O)CN2C(=O)[C@@H](NC(=O)CC2CCC(c3cccc(OC[C@H](CCC(N)=O)NC(=O)[C@@H]4Cc5cccc6c5N4C(=O)[C@@H](NC(=O)c4cc5cc(C(=O)P(=O)(O)O)ccc5[nH]4)CC6)c3Cl)CC2)C(C)(C)C)cc1` (stereo partly drawn) [I-55], the DC50 lay in the range of 10 to 100 nM.

The assay is the same for the next values; noted with them: read-out: STAT3 HiBIT A549 degradation 24 h: Average external-Abs DC50, 24 h compound incubation.
Regarding `CC(C)c1ccc(CNC(=O)[C@H](CCC(N)=O)NC(=O)[C@@H]2CC[C@@H]3CCN(C(=O)[C@H]4CC[C@@H](CCc5ccc6c(c5)n(C)c(=O)n6C5CCC(=O)NC5=O)CC4)C[C@H](NC(=O)c4cc5cc(C(=O)P(=O)(O)O)ccc5[nH]4)C(=O)N32)cc1Cl` (stereo partly drawn) [I-33], the half-maximal degradation concentration (DC50) was in the range of 10 to 100 nM. In the case of `Cn1c(=O)n(C2CCC(=O)NC2=O)c2ccc(C[C@H]3CC[C@@H](CC(=O)N4CC[C@H]5CC[C@@H](C(=O)N[C@@H](CCC(N)=O)C(=O)NCc6ccc(S(C)(=O)=O)c(F)c6)N5C(=O)[C@@H](NC(=O)c5cc6cc(C(=O)P(=O)(O)O)ccc6[nH]5)C4)CC3)cc21` (stereo partly drawn) [I-46], the DC50 lay within 10 to 100 nM.
